Experimental data published in ChEMBL document CHEMBL1137154, “Phenylethanolamine N-methyltransferase inhibition: re-evaluation of kinetic data” (Bioorg Med Chem Lett, 2004).

Biological target: T1, Phenylethanolamine N-methyltransferase (Homo sapiens, UniProt P11086)
T1 sequence (P11086 whole entry): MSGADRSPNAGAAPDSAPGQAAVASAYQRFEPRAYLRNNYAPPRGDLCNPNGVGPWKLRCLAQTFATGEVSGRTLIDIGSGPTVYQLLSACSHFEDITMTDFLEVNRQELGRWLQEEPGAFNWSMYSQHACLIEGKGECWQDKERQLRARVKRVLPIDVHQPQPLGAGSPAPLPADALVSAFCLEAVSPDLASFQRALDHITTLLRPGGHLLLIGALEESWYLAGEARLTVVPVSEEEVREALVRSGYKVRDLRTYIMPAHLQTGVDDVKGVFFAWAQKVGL
Test: Inhibitory binding affinity for phenylethanolamine N-methyl-transferase (PNMT)

**Q.** How did the Ki turn out when `CC(N)c1cccc(Cl)c1Cl` (stereo unspecified) was run?
**A.** 90 nM
